Experimental data taken from patent US20240269150A1, “WOUND TREATMENT COMPOSITION” (CS MEDICA A/S, priority 2021, published 2024).

Experiment: Comparison of compositions formulated with different crystalline CBDs
Type: in vivo
Settings: compositions per Example 1 (formulation A or B) differing only in the crystalline CBD used
Description: In some embodiments, CBD of crystal structure A (or capable of forming needle-like crystals) is at least 1.2, 1.5, 2, 3, 4, 5, 7.5, 10, 15 or 20 times more “potent” on a weight/weight basis than CBD of crystal structure B (or capable of forming cluster/bunch-like crystals). Often, the “A-type” CBD is at least 2.5, 5, 7.5, or 10 times more “potent” on a weight/weight basis than “B-type” CBD. The “potency” of “type A” CBD can e.g. be determined in measuring the time needed for wound and/or soar healing using essentially identical compositions with the exception of the type of CBD used. Alternatively, the potency can be determined in the quantity of CBD needed to provide the same effect, such as wound and/or sore healing time.
Two compositions are prepared according to Example 1, e.g. formulation A or B, the only difference being that the crystalline CBD used in the formulation is either of type A (needle-like crystals; FIG. 1) or type B (bunch/cluster-like; FIG. 2).
Type A crystalline CBD is sourced from Enecta, while type B CBD is sourced from Pharma Hemp.

In the case of `C=C(C)[C@@H]1CCC(C)=C[C@H]1c1c(O)cc(CCCCC)cc1O` [type A CBD, cannabidiol], the “Activity / potency of type A CBD relative to type B CBD” value is reported as “significantly more active than type B CBD” and the “Activity / potency of type A CBD relative to type B CBD” value (listed as CBD with a needle-like crystal structure) is reported as “significantly more potent”.
